Results taken from patent publication US20130005650A1 (priority 2011, published 2013).

Assays:
[1] = molecular target: T1, Aβ42 fibrillogenesis (amyloid peptide) (Homo sapiens, UniProt P05067); assay: Congo Red spectrophotometric assay of amyloid fibrillogenesis; type: biochemical
T1 construct: purchased Invitrogen (Camarillo, Calif.)
Description: In addition, the inhibition of the oligomerization of amyloid peptide (inhibition of amyloid fibrillogenesis) can be estimated by the method described by Klunk, et al. using Congo Red (Klunk, W. E., Jacob, R. F., Mason, R. P. (1999) “Quantifying amyloid β-peptide aggregation using the congo red-Aβ spectrophotometric assay” Anal. Biochem. 266:66-76).
The inhibition of the oligomerization of amyloid peptide was estimated by the method described by Klunk, et al. using Congo Red (Klunk, W. E., Jacob, R. F., Mason, R. P. (1999) “Quantifying amyloid β-peptide aggregation using the congo red-Aβ spectrophotometric assay” Anal. Biochem. 266, 66-76). Briefly, amyloid peptides were prepared in 40 μM in Tris-Acetate (40 mM:8 mM) buffer. Acriflavine HCl to be tested for inhibition of fibrillogenesis was dissolved in phosphate buffered saline, and then diluted 100 fold into Tris-Acetate buffer. Aliquots of 100 μl of amyloid peptide were incubated with acriflavine at room temperature for 5 days before measuring the absorbance. BSA was included in the buffer as a negative control. […] The absorbance of Congo Red at 541 nm was read using a Perkin-Elmer Victor3 1420 Multilabel Counter. The inhibition of oligomerization was calculated using the following formula: Inhibition=(Abs541 of sample-Abs541 of control)/(Abs541 of Amyloid peptide-Abs541 of BSA).

amyloid fibrils = molecular target: T2, amyloid fibrils (Homo sapiens, UniProt P05067); assay: Incubation of acriflavine with amyloid fibrils (fibril dissociation); type: biochemical; conditions: in vitro
T2 construct: effective to reduce or reverse amyloid fibril formation (Aβ42 fibrillogenesis) in vitro

[2] = molecular target: yeast prion protein Sup-NM (Saccharomyces cerevisiae, UniProt P05453); type: biochemical; conditions: thioflavin T fluorescence, 25° C.
[3] = human; cited from earlier work
[4] = test system: PSI^+ induction in yeast cells; assay: PSI^+ induction assay in yeast; type: cell-based; conditions: FIG. 2; 24 h, 50 μM copper sulfate, 30° C.
[5] = cited from earlier work
microorganisms = conditions: generally; cited from earlier work

T1 sequence (P05067 672-713 limits assumed): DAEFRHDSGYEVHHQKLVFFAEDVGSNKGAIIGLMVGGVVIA
T2 sequence (P05067 672-713 limits assumed): as above
Sequence of yeast prion protein Sup-NM (P05453 1-254 limits assumed): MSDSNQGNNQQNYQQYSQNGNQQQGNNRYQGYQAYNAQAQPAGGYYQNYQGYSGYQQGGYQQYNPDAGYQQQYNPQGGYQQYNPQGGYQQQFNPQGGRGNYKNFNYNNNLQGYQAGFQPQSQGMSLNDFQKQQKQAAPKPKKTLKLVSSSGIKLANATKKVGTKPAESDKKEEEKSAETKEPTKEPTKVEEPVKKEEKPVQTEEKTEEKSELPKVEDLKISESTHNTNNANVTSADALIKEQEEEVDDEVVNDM

Question: Which results are given for Acriflavine HCl?
Answer: inhibition of amyloid fibrillogenesis ([1]; FIG. 1, Aβ42): concentration-dependent inhibition; IC50 for inhibition of fibrillogenesis ([1]; amyloid peptide 40 μM, room temperature, 5 days, Congo Red Abs 541 nm): approximately 1.7 μg/mL

Question: What does the source list for acriflavine?
Answer: amount of amyloid peptide monomer after incubation with amyloid fibrils (amyloid fibrils): increase in the amount of amyloid peptide monomer; inhibition of amyloid formation of yeast prion protein Sup-NM [2]: inhibit in a dose-dependent manner; crossing of the blood-brain barrier [3]: able to cross the blood-brain barrier; inhibition of PSI^+ induction in yeast cells [4]: concentration dependent inhibition

Question: With Acriflavine neutral as the substance, how does the toxicity ([5]; clinically used dosage range) read?
Answer: The toxicity was “low toxicity”.

Question: What about the “effect on hematopoietic system and liver” value ([5]; repetitive administrations for a prolonged period) of the same substance?
Answer: Its value is “does not suppress the hematopoietic system, nor damage the liver”.

Question: And the “concentration inhibiting the growth of microorganisms” value (microorganisms)?
Answer: The value was 10^−4 to 10^−5 M.
